Key:
[1] = tested on: false pimpernel; experiment: Test Example 1: herbicidal efficacy on rice paddy weeds pre-emergence; format: in vivo, Lindernia pyxidaria; conditions: 21 days
[2] = tested on: paddy rice plant (cultivar: Nihonbare); experiment: Test Example 3: phytotoxicity test for transplanted paddy rice plant; format: in vivo; conditions: transplanted rice, 21 days after treatment
In short: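 Clay loam soil was placed in a 75 cm^2 plastic pot and flooded to a water depth of 5 cm. Two Nihonbare paddy rice plants at the two-leaf stage were transplanted 1 cm deep and grown in a hot house. After treatment, pots stayed in the hot house for 21 days, and phytotoxicity was then graded against an untreated control.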

[3] = tested on: barnyard glass; experiment: Test Example 2: herbicidal efficacy on rice paddy weeds post-emergence; format: in vivo, Echinochloa crus-galli; conditions: post-emergence, one leaf stage, 21 days after treatment
In short: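 Plastic pots of 75 cm^2 were filled with clay loam soil and sown with barnyard glass and bulrush seeds, then topped with 75 cm^3 soil containing false pimpernel seeds. The pots were flooded to 5 cm water depth and held in a hot house. Twenty-one days after treatment, herbicidal efficacy was graded against an untreated control.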

[4] = tested on: transplanted paddy rice plant and Bulrush; experiment: Test Example 5: selectivity between transplanted paddy rice plant and weeds; format: in vivo; conditions: (highest dosage with no phytotoxicity to paddy rice)/(lowest dosage with effective level 4 on Bulrush); rice 3000-100 g/ha, Bulrush 300-10 g/ha; 21 days
In short: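 Transplanted paddy rice was treated at 3000, 1000, 300 and 100 g/ha active ingredient for phytotoxicity, and post-emergence bulrush at 300, 100, 30 and 10 g/ha. Plants were kept in a hothouse for 21 days. Growth inhibition versus untreated control was scored 0–4 (0%, 1–39%, 40–69%, 70–89%, 90–100%).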

[5] = tested on: bulrush; experiment: Test Example 2: herbicidal efficacy on rice paddy weeds post-emergence; format: in vivo, Scirpus juncoides; conditions: post-emergence, one leaf stage, 21 days after treatment
[6] = tested on: false pimpernel; experiment: as above; format: in vivo, Lindernia pyxidaria; conditions: post-emergence, one leaf stage, 21 days after treatment
[7] = tested on: bulrush; experiment: Test Example 1: herbicidal efficacy on rice paddy weeds pre-emergence; format: in vivo, Scirpus juncoides; conditions: 21 days
[8] = tested on: bulrush; experiment: Test Example 4: low dosage test for rice paddy weeds; format: in vivo, Scirpus juncoides; conditions: 300 g/ha as an active ingredient; plants treated at the one leaf stage; 21 days after treatment; vs untreated control
In short: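 Bulrush sown in clay loam pots, flooded to 5 cm water in a hot house, treated at the one-leaf stage with formulated compound at 300 g/ha. Efficacy scored 0–4 against untreated control 21 days after treatment (4 = 90–100%, 0 = 0% inhibition).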

[9] = dosage 1000 g/ha, treated 5 days after transplantation

SMILES | False pimpernel pre (herbicidal efficacy grade) ([1]; dosage 1000 g/ha) | Phytotoxicity to paddy rice [2, 9] | Burnyard grass post (herbicidal efficacy grade) ([3]; dosage 1000 g/ha) | Selective Index [4] | Bulrush post (herbicidal efficacy grade) ([5]; dosage 1000 g/ha) | False pimpernel post (herbicidal efficacy grade) ([6]; dosage 1000 g/ha) | Bulrush pre (herbicidal efficacy grade) ([7]; dosage 1000 g/ha) | Herbicide effect to Bulrush [8] | False pimpernel pre (herbicidal efficacy grade) ([1]; dosage 100 g/ha) | Phytotoxicity to paddy rice ([2]; dosage 100 g/ha as printed in the table line) | Burnyard grass post (herbicidal efficacy grade) ([3]; dosage 100 g/ha) | Bulrush post (herbicidal efficacy grade) ([5]; dosage 100 g/ha) | False pimpernel post (herbicidal efficacy grade) ([6]; dosage 100 g/ha) | Bulrush pre (herbicidal efficacy grade) ([7]; dosage 100 g/ha)
CCC1(CC)CN(Cc2ccccc2N(C(=O)OCC(C)C)S(=O)(=O)C(F)(F)F)C(=S)O1 [1-179] | 4 (90%-100% of herbicidal efficacy or phytotoxicity) | 0 (0% of herbicidal efficacy or phytotoxicity) | 4 (90%-100% of herbicidal efficacy or phytotoxicity) | 33.3 | 4 (90%-100% of herbicidal efficacy or phytotoxicity) | 4 (90%-100% of herbicidal efficacy or phytotoxicity) | 4 (90%-100% of herbicidal efficacy or phytotoxicity) | 4 (90%-100% of herbicidal efficacy or phytotoxicity) | – | – | – | – | – | –
CCCOC(=O)N(c1ccccc1CN1CC(C)(CC)OC1=O)S(=O)(=O)C(F)(F)F (centres unmarked) [1-90] | 4 (90%-100% of herbicidal efficacy or phytotoxicity) | 3 (70%-89% of herbicidal efficacy or phytotoxicity) | 4 (90%-100% of herbicidal efficacy or phytotoxicity) | 30 | 4 (90%-100% of herbicidal efficacy or phytotoxicity) | 4 (90%-100% of herbicidal efficacy or phytotoxicity) | 4 (90%-100% of herbicidal efficacy or phytotoxicity) | 4 (90%-100% of herbicidal efficacy or phytotoxicity) | – | – | – | – | – | –
CCCCC1(C)CN(Cc2ccccc2N(C(=O)OCC)S(=O)(=O)C(F)(F)F)C(=O)O1 (centres unmarked) [1-129] | – | – | – | 10 | – | – | – | 4 (90%-100% of herbicidal efficacy or phytotoxicity) | 4 (90%-100% of herbicidal efficacy or phytotoxicity) | 1 (1%-39% of herbicidal efficacy or phytotoxicity) | 3 (70%-89% of herbicidal efficacy or phytotoxicity) | 4 (90%-100% of herbicidal efficacy or phytotoxicity) | 3 (70%-89% of herbicidal efficacy or phytotoxicity) | 2 (40%-69% of herbicidal efficacy or phytotoxicity)
CCC1(C(C)C)CN(Cc2ccccc2N(C(=O)OCC(C)C)S(=O)(=O)C(F)(F)F)C(=O)O1 (centres unmarked) [1-133] | 4 (90%-100% of herbicidal efficacy or phytotoxicity) | 1 (1%-39% of herbicidal efficacy or phytotoxicity) | 4 (90%-100% of herbicidal efficacy or phytotoxicity) | 10 | 4 (90%-100% of herbicidal efficacy or phytotoxicity) | 4 (90%-100% of herbicidal efficacy or phytotoxicity) | 4 (90%-100% of herbicidal efficacy or phytotoxicity) | 4 (90%-100% of herbicidal efficacy or phytotoxicity) | – | – | – | – | – | –
COC(=O)N(c1ccccc1CN1CC(C)(CC(C)C)OC1=O)S(=O)(=O)C(F)(F)F (racemic) [1-124] | 4 (90%-100% of herbicidal efficacy or phytotoxicity) | 1 (1%-39% of herbicidal efficacy or phytotoxicity) | 4 (90%-100% of herbicidal efficacy or phytotoxicity) | 10 | 4 (90%-100% of herbicidal efficacy or phytotoxicity) | 4 (90%-100% of herbicidal efficacy or phytotoxicity) | 4 (90%-100% of herbicidal efficacy or phytotoxicity) | 4 (90%-100% of herbicidal efficacy or phytotoxicity) | – | – | – | – | – | –
CCOC(=O)N(c1ccccc1CN1CC(C)(C2CC2)OC1=O)S(=O)(=O)C(F)(F)F (racemic) [1-111] | 4 (90%-100% of herbicidal efficacy or phytotoxicity) | 2 (40%-69% of herbicidal efficacy or phytotoxicity) | 4 (90%-100% of herbicidal efficacy or phytotoxicity) | ≧30 | 4 (90%-100% of herbicidal efficacy or phytotoxicity) | 4 (90%-100% of herbicidal efficacy or phytotoxicity) | 4 (90%-100% of herbicidal efficacy or phytotoxicity) | 4 (90%-100% of herbicidal efficacy or phytotoxicity) | – | – | – | – | – | –
COC(=O)N(c1ccccc1CN1CC(C)(C2CC2)OC1=O)S(=O)(=O)C(F)(F)F (racemic) [1-110] | 4 (90%-100% of herbicidal efficacy or phytotoxicity) | 2 (40%-69% of herbicidal efficacy or phytotoxicity) | 4 (90%-100% of herbicidal efficacy or phytotoxicity) | ≧30 | 4 (90%-100% of herbicidal efficacy or phytotoxicity) | 4 (90%-100% of herbicidal efficacy or phytotoxicity) | 4 (90%-100% of herbicidal efficacy or phytotoxicity) | 4 (90%-100% of herbicidal efficacy or phytotoxicity) | – | – | – | – | – | –
CC1(C)CN(Cc2ccccc2NS(=O)(=O)C(F)(F)F)C(=S)O1 [1-49] | 4 (90%-100% of herbicidal efficacy or phytotoxicity) | 2 (40%-69% of herbicidal efficacy or phytotoxicity) | 4 (90%-100% of herbicidal efficacy or phytotoxicity) | 10 | 4 (90%-100% of herbicidal efficacy or phytotoxicity) | 4 (90%-100% of herbicidal efficacy or phytotoxicity) | 4 (90%-100% of herbicidal efficacy or phytotoxicity) | 4 (90%-100% of herbicidal efficacy or phytotoxicity) | – | – | – | – | – | –
CC(C)COC(=O)N(c1ccccc1CN1CC2(CC2)OC1=O)S(=O)(=O)C(F)(F)F [1-89] | 4 (90%-100% of herbicidal efficacy or phytotoxicity) | 1 (1%-39% of herbicidal efficacy or phytotoxicity) | 4 (90%-100% of herbicidal efficacy or phytotoxicity) | 10 | 4 (90%-100% of herbicidal efficacy or phytotoxicity) | 4 (90%-100% of herbicidal efficacy or phytotoxicity) | 4 (90%-100% of herbicidal efficacy or phytotoxicity) | 4 (90%-100% of herbicidal efficacy or phytotoxicity) | – | – | – | – | – | –
CCC1(C(C)C)CN(Cc2ccccc2N(C(=O)OC)S(=O)(=O)C(F)(F)F)C(=O)O1 (centres unmarked) [1-145] | 4 (90%-100% of herbicidal efficacy or phytotoxicity) | 2 (40%-69% of herbicidal efficacy or phytotoxicity) | 4 (90%-100% of herbicidal efficacy or phytotoxicity) | 10 | 4 (90%-100% of herbicidal efficacy or phytotoxicity) | 4 (90%-100% of herbicidal efficacy or phytotoxicity) | 4 (90%-100% of herbicidal efficacy or phytotoxicity) | 4 (90%-100% of herbicidal efficacy or phytotoxicity) | – | – | – | – | – | –
